Test results published in publication PMC10686834, “Targeting myeloid chemotaxis to reverse prostate cancer therapy resistance” (Nature, 2023).

Test system: patients with ARSI-resistant mCRPC
Assay: Phase 1 trial of AZD5069 plus enzalutamide: safety and tolerability (DLTs, treatment-emergent adverse events, NCI-CTCAE v.4.0)
Assay type: in vivo
Description: The primary trial objective was to evaluate the safety and tolerability of the combination. Key secondary objectives were to evaluate pharmacokinetic–pharmacodynamic parameters and antitumour activity.
Eligible patients were consenting patients aged ≥18 years, who had mCRPC with histologically confirmed prostate adenocarcinoma histology, documented cancer progression at the time of trial entry by Response Evaluation Criteria in Solid Tumors (v.1.1) and/or Prostate Cancer Working Group 2 criteria, and PSA of ≥10 ng ml^−1 at screening.
The dose-escalation phase used a rule-based 3 + 3 design, with an initial three patients enrolled per dose level. If none of the first three patients experienced a DLT, dose escalation proceeded to the next dose level. […] If fewer than two of six patients at any dose level experienced a DLT, dose escalation continued to the next level. If at least two out of up to six patients experienced a DLT, dose escalation stopped and this dose level was defined as the maximum administered dose. Once this maximum administered dose was defined, the maximum tolerated dose (MTD) was confirmed at the dose level below the maximum administered dose. At least six evaluable patients were required to establish the MTD at a specific dose level. […] Intra-patient dose escalation was not permitted. Start of dosing between the first and second patient enrolled to each dose level was staggered by 1 week. Once the MTD was determined in the phase 1 study, the recommended phase 2 dose was determined on the basis of available data, including but not limited to safety and response.
DLTs were defined as described in the study protocol. […] Prophylaxis with growth factor support or antipyretics were not permitted. Investigators determined whether an adverse event was related to the study drugs. If a patient experienced clinically significant and/or unacceptable toxicity, including a DLT, not attributable to the disease or disease-related processes, dosing was interrupted or the dose was reduced and supportive therapy was administered as required.

For `C[C@@H](Oc1cc(NS(=O)(=O)N2CCC2)nc(SCc2cccc(F)c2F)n1)[C@@H](O)CO` [AZD5069], which “TEAE Arthralgia, G≥3” value (AZD5069 160 mg BD (n=6)) is on record?
Its value is 0 (0) n (%).

What about the “TEAE Aspartate aminotransferase increased, All G” value (AZD5069 160 mg BD (n=6)) of the same compound?
The value was 0 (0) n (%).

What about the “TEAE Aspartate aminotransferase increased, G≥3” value (AZD5069 160 mg BD (n=6)) of the same compound?
Its value is 0 (0) n (%).

What about the “TEAE Constipation, All G” value (AZD5069 160 mg BD (n=6)) of the same compound?
The value was 0 (0) n (%).

And the “TEAE Constipation, G≥3” value (AZD5069 160 mg BD (n=6))?
Its value is 0 (0) n (%).

What about the “TEAE Death, All G” value (AZD5069 160 mg BD (n=6)) of the same compound?
The value was 0 (0) n (%).

What about the “TEAE Death, G≥3” value (AZD5069 160 mg BD (n=6)) of the same compound?
The value was 0 (0) n (%).

And the “TEAE Decreased appetite, All G” value (AZD5069 160 mg BD (n=6))?
Its value is 0 (0) n (%).

And the “TEAE Decreased appetite, G≥3” value (AZD5069 160 mg BD (n=6))?
Its value is 0 (0) n (%).

What about the “TEAE Diarrhoea, All G” value (AZD5069 160 mg BD (n=6)) of the same compound?
Its value is 0 (0) n (%).

What about the “TEAE Diarrhoea, G≥3” value (AZD5069 160 mg BD (n=6)) of the same compound?
The value was 0 (0) n (%).

What about the “TEAE Dry skin, All G” value (AZD5069 160 mg BD (n=6)) of the same compound?
The value was 0 (0) n (%).

What about the “TEAE Dry skin, G≥3” value (AZD5069 160 mg BD (n=6)) of the same compound?
Its value is 0 (0) n (%).

And the “TEAE Fatigue, All G” value (AZD5069 160 mg BD (n=6))?
Its value is 2 (33) n (%).

And the “TEAE Fatigue, G≥3” value (AZD5069 160 mg BD (n=6))?
Its value is 0 (0) n (%).

What about the “TEAE Headache, All G” value (AZD5069 160 mg BD (n=6)) of the same compound?
The value was 0 (0) n (%).

And the “TEAE Headache, G≥3” value (AZD5069 160 mg BD (n=6))?
Its value is 0 (0) n (%).

And the “TEAE Hypophosphataemia, All G” value (AZD5069 160 mg BD (n=6))?
Its value is 0 (0) n (%).

And the “TEAE Hypophosphataemia, G≥3” value (AZD5069 160 mg BD (n=6))?
The value was 0 (0) n (%).

And the “TEAE Nausea, All G” value (AZD5069 160 mg BD (n=6))?
The value was 2 (33) n (%).

And the “TEAE Nausea, G≥3” value (AZD5069 160 mg BD (n=6))?
The value was 0 (0) n (%).

And the “TEAE Neutrophil decreased, All G” value (AZD5069 160 mg BD (n=6))?
The value was 5 (83) n (%).

What about the “TEAE Neutrophil decreased, G≥3” value (AZD5069 160 mg BD (n=6)) of the same compound?
The value was 4 (67) n (%).

And the “TEAE Oedema genital, All G” value (AZD5069 160 mg BD (n=6))?
The value was 1 (17) n (%).

And the “TEAE Oedema genital, G≥3” value (AZD5069 160 mg BD (n=6))?
The value was 0 (0) n (%).

What about the “TEAE Platelet decreased, All G” value (AZD5069 160 mg BD (n=6)) of the same compound?
Its value is 1 (17) n (%).

And the “TEAE Platelet decreased, G≥3” value (AZD5069 160 mg BD (n=6))?
Its value is 0 (0) n (%).

What about the “TEAE Pruritus, All G” value (AZD5069 160 mg BD (n=6)) of the same compound?
Its value is 0 (0) n (%).

What about the “TEAE Pruritus, G≥3” value (AZD5069 160 mg BD (n=6)) of the same compound?
The value was 0 (0) n (%).

What about the “TEAE Skin infection, All G” value (AZD5069 160 mg BD (n=6)) of the same compound?
Its value is 0 (0) n (%).

What about the “TEAE Skin infection, G≥3” value (AZD5069 160 mg BD (n=6)) of the same compound?
The value was 0 (0) n (%).

And the “TEAE Vomiting, All G” value (AZD5069 160 mg BD (n=6))?
Its value is 0 (0) n (%).

And the “TEAE Vomiting, G≥3” value (AZD5069 160 mg BD (n=6))?
The value was 0 (0) n (%).

What about the “TEAE White blood cell decreased, All G” value (AZD5069 160 mg BD (n=6)) of the same compound?
Its value is 2 (33) n (%).

And the “TEAE White blood cell decreased, G≥3” value (AZD5069 160 mg BD (n=6))?
The value was 0 (0) n (%).

And the “TEAE Anemia, All G” value (AZD5069 320 mg BD (n=7))?
Its value is 0 (0) n (%).

And the “TEAE Anemia, G≥3” value (AZD5069 320 mg BD (n=7))?
Its value is 0 (0) n (%).

And the “TEAE Aphasia, All G” value (AZD5069 320 mg BD (n=7))?
Its value is 1 (14) n (%).

And the “TEAE Aphasia, G≥3” value (AZD5069 320 mg BD (n=7))?
Its value is 0 (0) n (%).

And the “TEAE Arthralgia, All G” value (AZD5069 320 mg BD (n=7))?
Its value is 1 (14) n (%).

And the “TEAE Arthralgia, G≥3” value (AZD5069 320 mg BD (n=7))?
The value was 0 (0) n (%).

And the “TEAE Aspartate aminotransferase increased, All G” value (AZD5069 320 mg BD (n=7))?
The value was 1 (14) n (%).

And the “TEAE Aspartate aminotransferase increased, G≥3” value (AZD5069 320 mg BD (n=7))?
Its value is 0 (0) n (%).

What about the “TEAE Constipation, All G” value (AZD5069 320 mg BD (n=7)) of the same compound?
The value was 1 (14) n (%).

What about the “TEAE Constipation, G≥3” value (AZD5069 320 mg BD (n=7)) of the same compound?
The value was 0 (0) n (%).

What about the “TEAE Death, All G” value (AZD5069 320 mg BD (n=7)) of the same compound?
Its value is 1 (14) n (%).

And the “TEAE Death, G≥3” value (AZD5069 320 mg BD (n=7))?
Its value is 1 (14) n (%).

And the “TEAE Decreased appetite, All G” value (AZD5069 320 mg BD (n=7))?
The value was 1 (14) n (%).

And the “TEAE Decreased appetite, G≥3” value (AZD5069 320 mg BD (n=7))?
The value was 0 (0) n (%).

What about the “TEAE Diarrhoea, All G” value (AZD5069 320 mg BD (n=7)) of the same compound?
Its value is 1 (14) n (%).

And the “TEAE Diarrhoea, G≥3” value (AZD5069 320 mg BD (n=7))?
The value was 1 (14) n (%).

And the “TEAE Dry skin, All G” value (AZD5069 320 mg BD (n=7))?
The value was 1 (14) n (%).

And the “TEAE Dry skin, G≥3” value (AZD5069 320 mg BD (n=7))?
Its value is 0 (0) n (%).

What about the “TEAE Fatigue, All G” value (AZD5069 320 mg BD (n=7)) of the same compound?
The value was 3 (43) n (%).

And the “TEAE Fatigue, G≥3” value (AZD5069 320 mg BD (n=7))?
Its value is 0 (0) n (%).

What about the “TEAE Headache, All G” value (AZD5069 320 mg BD (n=7)) of the same compound?
Its value is 3 (43) n (%).

And the “TEAE Headache, G≥3” value (AZD5069 320 mg BD (n=7))?
Its value is 0 (0) n (%).

What about the “TEAE Hypophosphataemia, All G” value (AZD5069 320 mg BD (n=7)) of the same compound?
Its value is 0 (0) n (%).

What about the “TEAE Hypophosphataemia, G≥3” value (AZD5069 320 mg BD (n=7)) of the same compound?
Its value is 0 (0) n (%).

And the “TEAE Nausea, All G” value (AZD5069 320 mg BD (n=7))?
Its value is 1 (14) n (%).

And the “TEAE Nausea, G≥3” value (AZD5069 320 mg BD (n=7))?
The value was 0 (0) n (%).

And the “TEAE Neutrophil decreased, All G” value (AZD5069 320 mg BD (n=7))?
Its value is 6 (86) n (%).

What about the “TEAE Neutrophil decreased, G≥3” value (AZD5069 320 mg BD (n=7)) of the same compound?
The value was 4 (57) n (%).
